Test results taken from ChEMBL document CHEMBL5550126, “Identification of naphthalimide-derivatives as novel PBD-targeted polo-like kinase 1 inhibitors with efficacy in drug-resistant lung cancer cells” (Eur J Med Chem, 2024).
Active and inactive are the calls of the source. The rule behind the calls is not given here.

Assays:
[1] = Toxicity in male BALB/c nude mouse xenografted with human gefitinib resistant NCI-H1975 cells assessed as reduction in body weight at 30 mg/kg, po administered every 2 days for 20 days and measured 3 times a week; assay type: organism-based; settings: in vivo, 480 h, time 20 day
[2] = GSH reactivity of compound in PBS assessed as increase in fluorogenic response at 5 uM measured after 0 to 24 hrs by fluorescence spectrophotometer; assay type: physicochemical; settings: buffer, time 0-24 hrs
[3] = Toxicity in male BALB/c nude mouse xenografted with human A549/DDP cells assessed as liver damage at 30 to 50 mg/kg, ip administered every 2 days for 32 days by H and E staining based analysis; assay type: organism-based, A549/CDDP; settings: in vivo, 768 h, dose 30-50 mg/kg, time 32 day
MGC-803 = experiment: Anticancer activity against human MGC-803 cells assessed as inhibition of cell growth incubated for 48 hrs by crystal violet staining based analysis; assay type: functional; settings: MGC-803, 48 h
A549 [4] = experiment: Induction of mitotic catastrophe in human A549 cells assessed as downregulation of CDC25 protein expression at 1.5 to 6 uM measured after 48 hrs by Western blot analysis; assay type: functional, cell-based; settings: dose 1.5-6 µM
[5] = biological target: T1, Serine/threonine-protein kinase PLK1 (Homo sapiens, UniProt P53350); experiment: Inhibition of PLK1 in human A549/DDP cells assessed as reduction in protein abundance measured after 48 hrs by Western blot analysis; assay type: cell-based
A549/CDDP [6] = experiment: Antitumor activity against human A549/DDP cells assessed as male BALB/c nude mouse assessed as median survival time at 50 mg/kg, ip administered every 2 days for 32 days (reference value: 38 days); assay type: functional; settings: time 32 day
A549/CDDP [7] = experiment: Antitumor activity against human A549/DDP cells assessed as male BALB/c nude mouse assessed as tumor growth inhibition at 30 mg/kg, ip administered every 2 days for 32 days and measured 3 times a week relative to control; assay type: functional; settings: 768 h, time 32 day, read-out: TGI
MCF7 = experiment: Anticancer activity against human MCF7 cells assessed as inhibition of cell growth incubated for 48 hrs by crystal violet staining based analysis; assay type: functional; settings: MCF7, 48 h
[8] = GSH reactivity of compound in PBS assessed as increase in fluorogenic response at 0 to 800 uM measured after 60 mins by fluorescence spectrophotometer; assay type: physicochemical; settings: buffer, 1 h, dose 0-800 µM
[9] = Toxicity in male BALB/c nude mouse xenografted with human gefitinib resistant NCI-H1975 cells assessed as liver damage at 30 mg/kg, po administered every 2 days for 20 days and measured 3 times a week by H and E staining based analysis; assay type: organism-based; settings: in vivo, 480 h, time 20 day
A549/CDDP [10] = experiment: Effect on p21 protein expression in human A549/DDP cells assessed as effect on protein abundance at 0 to 6 uM measured after 48 hrs by Western blot analysis; assay type: functional, cell-based; settings: dose 0-6 µM
A549/CDDP [11] = experiment: Induction of cell cycle arrest at G2/M phase in human A549/DDP cells at 0 to 15 uM measured after 48 hrs by RNase A/PI staining based flow cytometry analysis; assay type: functional; settings: dose 0-15 µM
A549/CDDP [12] = experiment: Antitumor activity against human A549/DDP cells assessed as male BALB/c nude mouse assessed as median survival time at 30 mg/kg, ip administered every 2 days for 32 days (reference value: 38 days); assay type: functional; settings: time 32 day
A549/CDDP [13] = experiment: Disruption of redox homeostasis in human A549/DDP cells assessed as increase in ROS level at 0 to 9 uM measured after 48 hrs; assay type: functional, cell-based; settings: dose 0-9 µM
[14] = GSH reactivity in human A549 cells assessed as increase in fluorescence intensity measured after 48 hrs; assay type: ADME, cell-based; settings: a549, 48 h, dose 0-9 µM
[15] = Toxicity in male BALB/c nude mouse xenografted with human A549/DDP cells assessed as change in heart index at 30 mg/kg, ip administered every 2 days for 32 days; assay type: organism-based, A549/CDDP; settings: in vivo, 768 h, time 32 day
A549/CDDP [16] = experiment: Antitumor activity against human A549/DDP cells assessed as male BALB/c nude mouse assessed as reduction in tumor growth at 30 to 50 mg/kg, ip administered every 2 days for 32 days and measured 3 times a week; assay type: functional, organism-based; settings: dose 30-50 mg/kg, time 32.0 day
A549/CDDP [17] = experiment: Anticancer activity against human A549/DDP cells assessed as inhibition of cell growth incubated for 48 hrs by crystal violet staining based analysis; assay type: functional
A549/CDDP [18] = experiment: Antitumor activity against human A549/DDP cells assessed as male BALB/c nude mouse assessed as tumor regression at 50 mg/kg, ip administered every 2 days for 32 days and measured 3 times a week; assay type: functional, organism-based; settings: time 32.0 day
A549 [19] = experiment: Induction of cell cycle arrest at G2/M phase in human A549 cells at 0 to 15 uM measured after 48 hrs by RNase A/PI staining based flow cytometry analysis; assay type: functional; settings: dose 0-15 µM
[20] = Toxicity in male BALB/c nude mouse xenografted with human A549/DDP cells assessed as change in liver index at 30 to 50 mg/kg, ip administered every 2 days for 32 days; assay type: organism-based, A549/CDDP; settings: in vivo, 768 h, dose 30-50 mg/kg, time 32 day
[21] = biological target: T1, Serine/threonine-protein kinase PLK1; experiment: Binding affinity to PLK1 in human A549/DDP cell lysates assessed as thermal stabilization at 20 uM at 44 to 64 degreeC incubated for 2 hrs by CETSA; assay type: subcellular; settings: Lysate
T-24 = experiment: Anticancer activity against human T24 cells assessed as inhibition of cell growth incubated for 48 hrs by crystal violet staining based analysis; assay type: functional; settings: T-24, 48 h
[22] = Antitumor activity against human gefitinib resistant NCI-H1975 cells xenografted in male BALB/c nude mouse assessed as inhibition of tumor growth at 30 mg/kg, po administered every 2 days for 20 days and measured 3 times a week relative to control; assay type: functional; settings: gefitinib resistant NCI-H1975 cell, 480 h, time 20 day, read-out: TGI
[23] = Toxicity in male BALB/c nude mouse xenografted with human gefitinib resistant NCI-H1975 cells assessed as heart damage at 30 mg/kg, po administered every 2 days for 20 days and measured 3 times a week by H and E staining based analysis; assay type: organism-based; settings: in vivo, 480 h, time 20 day

T1 sequence (P53350 whole entry): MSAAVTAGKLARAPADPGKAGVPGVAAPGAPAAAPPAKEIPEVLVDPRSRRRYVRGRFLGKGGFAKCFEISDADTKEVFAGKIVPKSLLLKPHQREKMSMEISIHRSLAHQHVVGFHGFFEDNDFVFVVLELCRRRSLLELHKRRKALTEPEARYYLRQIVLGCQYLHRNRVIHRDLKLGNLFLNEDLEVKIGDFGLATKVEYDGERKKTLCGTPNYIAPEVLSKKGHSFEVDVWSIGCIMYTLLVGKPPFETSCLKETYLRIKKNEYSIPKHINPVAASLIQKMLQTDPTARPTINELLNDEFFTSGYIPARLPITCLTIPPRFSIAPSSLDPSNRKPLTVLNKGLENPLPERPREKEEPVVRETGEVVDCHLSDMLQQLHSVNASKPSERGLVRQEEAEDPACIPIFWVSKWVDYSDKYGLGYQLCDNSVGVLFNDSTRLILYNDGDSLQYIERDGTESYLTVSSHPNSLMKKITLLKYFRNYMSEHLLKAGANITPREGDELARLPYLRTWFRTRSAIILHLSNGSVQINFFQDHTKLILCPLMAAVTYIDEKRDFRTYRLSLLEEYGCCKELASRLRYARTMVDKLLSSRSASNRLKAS

CN(C)CCN1C(=O)c2cccc3c(S(=O)(=O)NCc4ccc(F)cc4)ccc(c23)C1=O
Activity [1]: Non-Toxic
Drug metabolism [2]: Metabolite_Detected
Activity [3]: Non-Toxic
IC50 (MGC-803): 3.2 µM
Activity (A549 [4]): Active
inhibition [5]: Active
MSD (A549/CDDP [6]): 62 days
inhibition in vivo at 30 mg/kg (A549/CDDP [7]): 42%
IC50 (MCF7): 6.54 µM
Drug metabolism [8]: Metabolite_Detected
Activity [9]: Non-Toxic
Activity (A549/CDDP [10]): Active
Activity (A549/CDDP [11]): Active
MSD (A549/CDDP [12]): 53 days
Activity (A549/CDDP [13]): Active
Drug metabolism [14]: Metabolite_Detected
Activity [15]: Toxic
Activity (A549/CDDP [16]): Active
IC50 (A549/CDDP [17]): 2.65 µM
Activity (A549/CDDP [18]): Active
Activity (A549 [19]): Active
Activity [20]: Non-Toxic
Activity [21]: Active
IC50 (T-24): 2.9 µM
inhibition in vivo at 30 mg/kg [22]: 44%
Activity [23]: Non-Toxic
